Test results as given in US5977386A, “6-thio-substituted paclitaxels” (Bristol-Myers Squibb Company, priority 1997, dated 1999).
Where two headings read alike, the source gives them in different places.

How the values were obtained:
[1] = system: HCT-116 human colon carcinoma cells; assay: MTS cytotoxicity assay (72 h exposure); format: cell-based
Experimental: Cytoxicity was assessed in HCT-116 human colon carcinoma cells by MTS (3-(4,5-dimethylthiazol-2-yl)-5-(3-carboxymethoxyphenyl)-2-(4-sulphenyl)-2H-tetrazolium, inner salt) assay as reported in T. L. Riss, et. al., "Comparison of MTT, XTT, and a novel tetrazolium compound MTS for in vitro proliferation and chemosensitivity assays.," Mol. Biol. Cell 3 (Suppl.):184a, 1992. Cells were plated at 4,000 cell/well in 96 well microtiter plates and 24 hours later drugs were added and serial diluted. The cells were incubated at 37° for 72 hours at which time the tetrazolium dye, MTS at 333 μg/ml (final concentration), in combination with the electron coupling agent phenazine methosulfate at 25 μM (final concentration) was added. A dehydrogenase enzyme in live cells reduces the MTS to a form that absorbs light at […] which can be quantitated spectrophotometrically. The greater the absorbance the greater the number of live cells. The results are expressed as an IC50, which is the drug concentration required to inhibit cell proliferation (i.e. absorbance at 450 nm) to 50% of that of untreated control cells. The IC50 values for compounds evaluated in this assay are evaluated in Table I.
^1 Cytotoxicity was determined after a 72 h exposure by MTS assay.

M109 lung carcinoma = assay: Mice M109 Model (In-Vivo), ip M109 lung carcinoma, median survival; design: species or system mouse; conditions: ip M109, Balb/c×DBA/2 F1 mice, ip injections days 5 and 8 post-implant, at optimal dose
Experimental: Balb/c×DBA/2 F1 hybrid mice were implanted intraperitoneally, as described by William Rose in Evaluation of Madison 109 Lung Carcinoma as a Model for Screening Antitumor Drugs, Cancer Treatment Reports, 65, No. 3-4 (1981), with 0.5 mL of a 2% (w/v) brei of M109 lung carcinoma.
Mice were treated with compounds under study by receiving intraperitoneal injections of various doses on days 5 and 8 post-implant. Mice were followed daily for survival until approximately 75 days post-tumor implant. One group of mice per experiment remained untreated and served as the control group.
Median survival times of compound-treated (T) mice were compared to the median survival time of the control (C) mice. The ratio of the two values for each compound-treated group of mice was multiplied by 100 and expressed as a percentage (i.e. % T/C) in the following Table II for representative compounds.
(§1) ^a Optimal dose (mg/kg/inj) if active, otherwise, maximal tolerated
(§2) dose (MTD) or highest dose tested.

M5076 murine sarcoma = assay: sc M5076 murine sarcoma model, tumor growth delay; format: in vivo; conditions: sc M5076, iv on days 1, 3, 5, 7, and 9 post-implant, at optimal dose
Experimental: M5076: Taxane derivatives were tested in the M5076 murine sarcoma model using the general materials and methods described by Rose, W. C. in Anticancer Research 6: 557-562, 1986, for subcutaneous M5076 implants, with the following modifications: treatments were administered intravenously on Days 1, 3, 5, 7, and 9 post-tumor implant using eight mice per treatment and untreated control group. Activity was determined based on an increase in lifespan (as described in the preceding reference) of […], and, in particular, on a delay in tumor growth equivalent to at least 1 gross log cell kill (LCK). The latter was calculated as described in Rose, W. C. and Basler, G. A. in In Vivo 4: 391-396, 1990.
as §1, §2

[2] = Homo sapiens, HCT-116, 72 h, read-out: Cytotoxicity Assay IC50 against HCT 116 Human colon tumor cell line
[3] = Homo sapiens, HCT-116, read-out: Cytotoxicity Assay IC50 against HCT 116 Human colon tumor cell line

Row | SMILES | IC50 [1, 2] | Maximum % T/C (ratio of median survival times treated/control x 100) (M109 lung carcinoma) | IC50 [1, 3] | Maximum T-C in LCK (gross log cell kill) (M5076 murine sarcoma) | IC50 ([1]; 4320 min, read-out: Cytotoxicity Assay IC50 against HCT 116 Human colon tumor cell line)
1 | COC(=O)CS[C@@H]1C[C@@]2(C)C(=O)[C@H](OC(C)=O)C3=C(C)[C@@H](OC(=O)[C@H](O)[C@@H](NC(=O)c4ccccc4)c4ccccc4)C[C@@](O)([C@@H](OC(=O)c4ccccc4)[C@@H]2[C@]2(OC(C)=O)CO[C@H]12)C3(C)C [Compound 40, 6b-thioacetyl methyl ester-7-deoxypaclitaxel] | 2.5 nM | 103% | – | – | –
2 | CC(=O)O[C@H]1C(=O)[C@]2(C)C[C@@H](S)[C@H]3OC[C@@]3(OC(C)=O)[C@H]2[C@H](OC(=O)c2ccccc2)[C@]2(O)C[C@H](OC(=O)[C@H](O)[C@@H](NC(=O)c3ccccc3)c3ccccc3)C(C)=C1C2(C)C [Compound 13, 7-deoxy-6β-thio-paclitaxel] | – | – | 26.1 nM | 0.5 LCK | –
3 | C=CS[C@@H]1C[C@@]2(C)C(=O)[C@H](OC(C)=O)C3=C(C)[C@@H](OC(=O)[C@H](O)[C@@H](NC(=O)c4ccccc4)c4ccccc4)C[C@@](O)([C@@H](OC(=O)c4ccccc4)[C@@H]2[C@]2(OC(C)=O)CO[C@H]12)C3(C)C [Compound 50, 6b-thioethenyl-7-deoxypaclitaxel] | 0.3 nM | – | – | 1.0 LCK | –
4 | COCS[C@@H]1C[C@@]2(C)C(=O)[C@H](OC(C)=O)C3=C(C)[C@@H](OC(=O)[C@H](O)[C@@H](NC(=O)c4ccccc4)c4ccccc4)C[C@@](O)([C@@H](OC(=O)c4ccccc4)[C@@H]2[C@]2(OC(C)=O)CO[C@H]12)C3(C)C [Compound 48] | 1.9 nM | – | – | 0.2 LCK | –
5 | CC(=O)CS[C@@H]1C[C@@]2(C)C(=O)[C@H](OC(C)=O)C3=C(C)[C@@H](OC(=O)[C@H](O)[C@@H](NC(=O)c4ccccc4)c4ccccc4)C[C@@](O)([C@@H](OC(=O)c4ccccc4)[C@@H]2[C@]2(OC(C)=O)CO[C@H]12)C3(C)C [Compound 34, 6-b-thiomethyl methyl keto-7-deoxytaclitaxel] | 1.2 nM | 168% | – | – | –
6 | CC(=O)O[C@H]1C(=O)[C@]2(C)C[C@@H](Sc3cccs3)[C@H]3OC[C@@]3(OC(C)=O)[C@H]2[C@H](OC(=O)c2ccccc2)[C@]2(O)C[C@H](OC(=O)[C@H](O)[C@@H](NC(=O)c3ccccc3)c3ccccc3)C(C)=C1C2(C)C [Compound 54, 6-b-thio-(2-thienyl)-7-deoxypaclitaxel] | 1.1 nM | 148% | – | – | –
7 | CS[C@@H]1C[C@@]2(C)C(=O)[C@H](OC(C)=O)C3=C(C)[C@@H](OC(=O)[C@H](O)[C@@H](NC(=O)c4ccccc4)c4ccccc4)C[C@@](O)([C@@H](OC(=O)c4ccccc4)[C@@H]2[C@]2(OC(C)=O)CO[C@H]12)C3(C)C [Compound 9, 7-deoxy-6β-thiomethylpaclitaxel] | 1.1 nM | – | – | 1.1 LCK | –
8 | CC(=O)O[C@H]1C(=O)[C@]2(C)C[C@@H]([S+](C)[O-])[C@H]3OC[C@@]3(OC(C)=O)[C@H]2[C@H](OC(=O)c2ccccc2)[C@]2(O)C[C@H](OC(=O)[C@H](O)[C@@H](NC(=O)OC(C)(C)C)c3ccccc3)C(C)=C1C2(C)C (single isomer, unassigned) [Compound 26, 3'-NH-Boc-7-deoxy-6b-methylsulfoxidepaclitaxel] | 0.66 nM | – | – | – | –
9 | CC(=O)O[C@H]1C(=O)[C@]2(C)C[C@@H](SCC(N)=O)[C@H]3OC[C@@]3(OC(C)=O)[C@H]2[C@H](OC(=O)c2ccccc2)[C@]2(O)C[C@H](OC(=O)[C@H](O)[C@@H](NC(=O)c3ccccc3)c3ccccc3)C(C)=C1C2(C)C [Compound 44, 7-deoxy-6b-thioacetamidepaclitaxel] | 11 nM | – | – | 0 LCK | –
10 | CCOC(=O)N[C@@H](c1ccccc1)[C@@H](O)C(=O)O[C@H]1C[C@@]2(O)[C@@H](OC(=O)c3ccccc3)[C@@H]3[C@]4(OC(C)=O)CO[C@@H]4[C@H](SC)C[C@@]3(C)C(=O)[C@H](OC(C)=O)C(=C1C)C2(C)C [Compound 28, 3'-NH-ethylcarbonate-7-deoxy-6b-thiomethylpaclitaxel] | 0.7 nM | – | – | 1.1 LCK | –
11 | CCS[C@@H]1C[C@@]2(C)C(=O)[C@H](OC(C)=O)C3=C(C)[C@@H](OC(=O)[C@H](O)[C@@H](NC(=O)c4ccccc4)c4ccccc4)C[C@@](O)([C@@H](OC(=O)c4ccccc4)[C@@H]2[C@]2(OC(C)=O)CO[C@H]12)C3(C)C [Compound 30, 7-deoxy-6b-thioethylpaclitaxel] | 0.9 nM | – | – | 0.4 LCK | –
12 | CS[C@@H]1C[C@@]2(C)C(=O)[C@H](OC(C)=O)C3=C(C)[C@@H](OC(=O)[C@H](O)[C@@H](NC(=O)OC(C)(C)C)c4ccccc4)C[C@@](O)([C@@H](OC(=O)c4ccccc4)[C@@H]2[C@]2(OC(C)=O)CO[C@H]12)C3(C)C [Compound 24, 3'-NH-Boc-7-deoxy-6b-thiomethylpaclitaxel] | 0.2 nM | – | – | 1.2 LCK | –
13 | CC(=O)O[C@H]1C(=O)[C@]2(C)C[C@@H](SCCO)[C@H]3OC[C@@]3(OC(C)=O)[C@H]2[C@H](OC(=O)c2ccccc2)[C@]2(O)C[C@H](OC(=O)[C@H](O)[C@@H](NC(=O)c3ccccc3)c3ccccc3)C(C)=C1C2(C)C [Compound 15, 7-deoxy-6β-(2-hydroxyethyl)thio-paclitaxel] | – | – | 1.8 nM | 0.3 LCK | –
14 | CC(=O)O[C@H]1C(=O)[C@]2(C)C[C@@H](SCc3ccccc3)[C@H]3OC[C@@]3(OC(C)=O)[C@H]2[C@H](OC(=O)c2ccccc2)[C@]2(O)C[C@H](OC(=O)[C@H](O)[C@@H](NC(=O)c3ccccc3)c3ccccc3)C(C)=C1C2(C)C [Compound 32, 6-b-thiobenzyl-7-deoxypaclitaxel] | 5.27 nM | – | – | – | –
15 | CC(=O)O[C@H]1C(=O)[C@]2(C)C[C@@H]([S+]([O-])CC#N)[C@H]3OC[C@@]3(OC(C)=O)[C@H]2[C@H](OC(=O)c2ccccc2)[C@]2(O)C[C@H](OC(=O)[C@H](O)[C@@H](NC(=O)c3ccccc3)c3ccccc3)C(C)=C1C2(C)C (single isomer, unassigned) [Compound 38, 6b-cyanomethylsulfoxo-7-deoxypaclitaxel] | 28 nM | – | – | 0 LCK | –
16 | CSCS[C@@H]1C[C@@]2(C)C(=O)[C@H](OC(C)=O)C3=C(C)[C@@H](OC(=O)[C@H](O)[C@@H](NC(=O)c4ccccc4)c4ccccc4)C[C@@](O)([C@@H](OC(=O)c4ccccc4)[C@@H]2[C@]2(OC(C)=O)CO[C@H]12)C3(C)C [Compound 46, 6-b-methylthiomethylthio ether-7-deoxy paclitaxel] | 3.5 nM | – | – | 0 LCK | –
17 | CC(=O)O[C@H]1C(=O)[C@]2(C)C[C@@H]([S+](C)[O-])[C@H]3OC[C@@]3(OC(C)=O)[C@H]2[C@H](OC(=O)c2ccccc2)[C@]2(O)C[C@H](OC(=O)[C@H](O)[C@@H](NC(=O)c3ccccc3)c3ccccc3)C(C)=C1C2(C)C (single isomer, unassigned) [Compound 19a, 7-deoxy-6β-methyl sulfoxide-paclitaxel] | – | – | – | – | > 111 nM
18 | CC(=O)O[C@H]1C(=O)[C@]2(C)C[C@@H](SCC#N)[C@H]3OC[C@@]3(OC(C)=O)[C@H]2[C@H](OC(=O)c2ccccc2)[C@]2(O)C[C@H](OC(=O)[C@H](O)[C@@H](NC(=O)c3ccccc3)c3ccccc3)C(C)=C1C2(C)C [Compound 36, 6b-thioacetonitrile-7-deoxypaclitaxel] | 4.4 nM | – | – | 1.1 LCK | –
19 | CC(=O)O[C@H]1C(=O)[C@]2(C)C[C@@H](SC(C)=O)[C@H]3OC[C@@]3(OC(C)=O)[C@H]2[C@H](OC(=O)c2ccccc2)[C@]2(O)C[C@H](OC(=O)[C@H](O)[C@@H](NC(=O)c3ccccc3)c3ccccc3)C(C)=C1C2(C)C [Compound 11, 7-deoxy-6β-thioacetoxypaclitaxel] | 1.84 nM | – | – | 0.5 LCK | –
